Laboratory results as given in PMC3626250, “Effects of Borneol on Pharmacokinetics and Tissue Distribution of Notoginsenoside R1 and Ginsenosides Rg1 and Re in Panax notoginseng in Rabbits” (Journal of Analytical Methods in Chemistry, 2013).
Read-outs that look alike come from different tables or passages of the source.

Legend:
[1] = Stability in plasma samples and tissue homogenates of rabbits; type: physicochemical
Method: The precision of the assay was determined for the quality control (QC) plasma and tissue […] Intraday precision and accuracy were determined via repeated analysis of the QC plasma and tissue samples within one day (n = 5). Interday precision and accuracy were determined via repeated analysis on five consecutive days. The concentration of each sample was determined using the prepared calibration curve and analyzed on the same day. All stabilities were evaluated at different concentration levels. Short-term stability of NGR1, GRg1, and GRe were assessed by analyzing QC samples kept at 4°C for 4–24 h. Freeze-thaw stability was evaluated at three consecutive freeze-thaw cycles. Long-term stability was studied by analyzing samples during a period of 8 weeks of storage at −70°C.
The stability studies were performed by evaluating small variations in three different conditions.

[2] = Transport studies across Caco-2 monolayers (P app, efflux ratio); type: in vitro ADME; details: human; for Papp A→B at 120 min, 500 μM / Papp B→A at 120 min, 500 μM: Caco-2 Model, 500 μM compound; for Papp A→B at 120 min, 500 μM: read-out: P app (apical to basolateral); for Papp B→A at 120 min, 500 μM: read-out: P app (basolateral to apical)
Method: Medium was replaced every 2-3 days. […] The vinblastine-selected Caco-2 cells were cultivated in the presence of 10 nM vinblastine to induce P-glycoprotein (P-gp) expression. […] Prior to the transport study, cytotoxicity of NGR1, GRg1, GRe, and Borneol toward Caco-2 cells was determined using MTT assays.
In transport studies, vinblastine-selected Caco-2 cells were seeded on polycarbonate filter of transwells for 18–21 days before starting transport study, and the monolayers with the transepithelial electrical resistance (TEER) values greater than 300 Ωcm^2 were used. Caco-2 monolayers were rinsed twice with Hanks' balanced salt solution (HBSS) and preincubated in HBSS at 37°C for 30 min before starting experiments. To start the experiments, 500 μM of NGR1, GRg1, and GRe in final concentrations were added to the donor side with or without 200 μM Borneol and then incubated at 37°C. […] After each sampling, 0.1 mL of HBSS was added to the receiver chamber to maintain a constant volume. All the experiments were performed five times in duplicate. The collected samples were stored at −20°C until HPLC analysis. During the above transport studies, the TEER values were also monitored before and at the end of each experiment. Apparent permeability coefficients (P app) were then calculated according to the following equation: (1) Papp=(dC/dt×V)/(A×C0), where dC/dt is the rate of the test compound appearing in the receiver chamber, V is the volume of the solution in the receiver chamber, A is the cell monolayer surface area, and C 0 is the initial concentration of the test compound added in the donor chamber.
The efflux ratio (Er) was calculated using the following equation: (2) Er=Papp(basolateral-apical)/Papp(apical-basolateral).

[3] = Caco-2, Caco-2 monolayers, read-out: efflux ratios (Er)
[4] = Caco-2, efflux ratio P app(basolateral-apical)/P app(apical-basolateral), with or without 200 μM Borneol (see label), read-out: E r
[5] = with or without 200 μM Borneol (see label)

CC(C)=CCC[C@](C)(O[C@@H]1O[C@H](CO)[C@@H](O)[C@H](O)[C@H]1O)[C@H]1CC[C@]2(C)[C@@H]1[C@H](O)C[C@@H]1[C@@]3(C)CC[C@H](O)C(C)(C)[C@@H]3[C@@H](O[C@@H]3O[C@H](CO)[C@@H](O)[C@H](O)[C@H]3O[C@@H]3OC[C@@H](O)[C@H](O)[C@H]3O)C[C@]12C [NGR1, notoginsenoside R1]
Remaining, Short-term stability ([1]; brain homogenate, QC 0.5 μg·mL^−1, 4°C for 4–24 h): 92.3 ± 9.4% | Remaining, Long-term stability ([1]; brain homogenate, QC 0.5 μg·mL^−1, 8 weeks at −70°C): 101.8 ± 6.8% | Remaining, Freeze-thaw stability ([1]; brain homogenate, QC 0.5 μg·mL^−1, three freeze-thaw cycles): 92.8 ± 6.9% | Remaining, Short-term stability ([1]; brain homogenate, QC 5.0 μg·mL^−1, 4°C for 4–24 h): 98.4 ± 4.4% | Remaining, Long-term stability ([1]; brain homogenate, QC 5.0 μg·mL^−1, 8 weeks at −70°C): 90.0 ± 9.5% | Remaining, Freeze-thaw stability ([1]; brain homogenate, QC 5.0 μg·mL^−1, three freeze-thaw cycles): 92.2 ± 8.5% | Remaining, Short-term stability ([1]; brain homogenate, QC 50.0 μg·mL^−1, 4°C for 4–24 h): 103.5 ± 9.2% | Remaining, Long-term stability ([1]; brain homogenate, QC 50.0 μg·mL^−1, 8 weeks at −70°C): 99.0 ± 5.3% | Remaining, Freeze-thaw stability ([1]; brain homogenate, QC 50.0 μg·mL^−1, three freeze-thaw cycles): 95.2 ± 11.4% | Remaining, Short-term stability ([1]; heart homogenate, QC 0.5 μg·mL^−1, 4°C for 4–24 h): 98.2 ± 6.7% | Remaining, Long-term stability ([1]; heart homogenate, QC 0.5 μg·mL^−1, 8 weeks at −70°C): 103.6 ± 6.5% | Remaining, Freeze-thaw stability ([1]; heart homogenate, QC 0.5 μg·mL^−1, three freeze-thaw cycles): 92.8 ± 6.8% | Remaining, Short-term stability ([1]; heart homogenate, QC 5.0 μg·mL^−1, 4°C for 4–24 h): 94.8 ± 9.5% | Remaining, Long-term stability ([1]; heart homogenate, QC 5.0 μg·mL^−1, 8 weeks at −70°C): 92.9 ± 4.2% | Remaining, Freeze-thaw stability ([1]; heart homogenate, QC 5.0 μg·mL^−1, three freeze-thaw cycles): 102.5 ± 10.6% | Remaining, Short-term stability ([1]; heart homogenate, QC 50.0 μg·mL^−1, 4°C for 4–24 h): 100.3 ± 7.5% | Remaining, Long-term stability ([1]; heart homogenate, QC 50.0 μg·mL^−1, 8 weeks at −70°C): 96.6 ± 6.7% | Remaining, Freeze-thaw stability ([1]; heart homogenate, QC 50.0 μg·mL^−1, three freeze-thaw cycles): 96.7 ± 8.7% | Remaining, Short-term stability ([1]; kidney homogenate, QC 0.5 μg·mL^−1, 4°C for 4–24 h): 92.4 ± 4.3% | Remaining, Long-term stability ([1]; kidney homogenate, QC 0.5 μg·mL^−1, 8 weeks at −70°C): 91.1 ± 5.4% | Remaining, Freeze-thaw stability ([1]; kidney homogenate, QC 0.5 μg·mL^−1, three freeze-thaw cycles): 92.2 ± 7.5% | Remaining, Short-term stability ([1]; kidney homogenate, QC 5.0 μg·mL^−1, 4°C for 4–24 h): 95.8 ± 5.6% | Remaining, Long-term stability ([1]; kidney homogenate, QC 5.0 μg·mL^−1, 8 weeks at −70°C): 94.3 ± 2.8% | Remaining, Freeze-thaw stability ([1]; kidney homogenate, QC 5.0 μg·mL^−1, three freeze-thaw cycles): 95.4 ± 8.9% | Remaining, Short-term stability ([1]; kidney homogenate, QC 50.0 μg·mL^−1, 4°C for 4–24 h): 90.8 ± 3.7% | Remaining, Long-term stability ([1]; kidney homogenate, QC 50.0 μg·mL^−1, 8 weeks at −70°C): 96.8 ± 9.5% | Remaining, Freeze-thaw stability ([1]; kidney homogenate, QC 50.0 μg·mL^−1, three freeze-thaw cycles): 80.9 ± 6.7% | Remaining, Short-term stability ([1]; liver homogenate, QC 0.5 μg·mL^−1, 4°C for 4–24 h): 95.1 ± 3.1% | Remaining, Long-term stability ([1]; liver homogenate, QC 0.5 μg·mL^−1, 8 weeks at −70°C): 92.6 ± 9.1% | Remaining, Freeze-thaw stability ([1]; liver homogenate, QC 0.5 μg·mL^−1, three freeze-thaw cycles): 98.9 ± 7.9% | Remaining, Short-term stability ([1]; liver homogenate, QC 5.0 μg·mL^−1, 4°C for 4–24 h): 94.3 ± 6.7% | Remaining, Long-term stability ([1]; liver homogenate, QC 5.0 μg·mL^−1, 8 weeks at −70°C): 96.6 ± 6.4% | Remaining, Freeze-thaw stability ([1]; liver homogenate, QC 5.0 μg·mL^−1, three freeze-thaw cycles): 103.8 ± 8.2% | Remaining, Short-term stability ([1]; liver homogenate, QC 50.0 μg·mL^−1, 4°C for 4–24 h): 95.4 ± 8.6% | Remaining, Long-term stability ([1]; liver homogenate, QC 50.0 μg·mL^−1, 8 weeks at −70°C): 100.9 ± 5.6% | Remaining, Freeze-thaw stability ([1]; liver homogenate, QC 50.0 μg·mL^−1, three freeze-thaw cycles): 99.0 ± 5.0% | Remaining, Short-term stability ([1]; lung homogenate, QC 0.5 μg·mL^−1, 4°C for 4–24 h): 91.2 ± 5.4% | Remaining, Long-term stability ([1]; lung homogenate, QC 0.5 μg·mL^−1, 8 weeks at −70°C): 97.6 ± 6.8% | Remaining, Freeze-thaw stability ([1]; lung homogenate, QC 0.5 μg·mL^−1, three freeze-thaw cycles): 95.8 ± 9.8% | Remaining, Short-term stability ([1]; lung homogenate, QC 5.0 μg·mL^−1, 4°C for 4–24 h): 96.8 ± 8.3% | Remaining, Long-term stability ([1]; lung homogenate, QC 5.0 μg·mL^−1, 8 weeks at −70°C): 89.8 ± 4.6% | Remaining, Freeze-thaw stability ([1]; lung homogenate, QC 5.0 μg·mL^−1, three freeze-thaw cycles): 91.9 ± 9.3% | Remaining, Short-term stability ([1]; lung homogenate, QC 50.0 μg·mL^−1, 4°C for 4–24 h): 95.6 ± 5.9% | Remaining, Long-term stability ([1]; lung homogenate, QC 50.0 μg·mL^−1, 8 weeks at −70°C): 91.6 ± 9.8% | Remaining, Freeze-thaw stability ([1]; lung homogenate, QC 50.0 μg·mL^−1, three freeze-thaw cycles): 96.9 ± 7.5% | Remaining, Short-term stability ([1]; plasma, QC 0.5 μg·mL^−1, 4°C for 4–24 h): 98.0 ± 6.2% | Remaining, Long-term stability ([1]; plasma, QC 0.5 μg·mL^−1, 8 weeks at −70°C): 100.0 ± 8.7% | Remaining, Freeze-thaw stability ([1]; plasma, QC 0.5 μg·mL^−1, three freeze-thaw cycles): 90.4 ± 5.9% | Remaining, Short-term stability ([1]; plasma, QC 5.0 μg·mL^−1, 4°C for 4–24 h): 96.0 ± 8.4% | Remaining, Long-term stability ([1]; plasma, QC 5.0 μg·mL^−1, 8 weeks at −70°C): 94.0 ± 6.8% | Remaining, Freeze-thaw stability ([1]; plasma, QC 5.0 μg·mL^−1, three freeze-thaw cycles): 92.8 ± 6.4% | Remaining, Short-term stability ([1]; plasma, QC 35.0 μg·mL^−1, 4°C for 4–24 h): 99.8 ± 3.3% | Remaining, Long-term stability ([1]; plasma, QC 35.0 μg·mL^−1, 8 weeks at −70°C): 97.0 ± 5.3% | Remaining, Freeze-thaw stability ([1]; plasma, QC 35.0 μg·mL^−1, three freeze-thaw cycles): 96.6 ± 5.5%

CC(C)=CCC[C@](C)(O[C@@H]1O[C@H](CO)[C@@H](O)[C@H](O)[C@H]1O)[C@H]1CC[C@]2(C)[C@@H]1[C@H](O)C[C@@H]1[C@@]3(C)CC[C@H](O)C(C)(C)[C@@H]3[C@@H](O[C@@H]3O[C@H](CO)[C@@H](O)[C@H](O)[C@H]3O[C@@H]3O[C@@H](C)[C@H](O)[C@@H](O)[C@H]3O)C[C@]12C [GRe, ginsenoside Re]
efflux ratio at 120 min, 500 μM [2, 3]: 1 to 1.1 | efflux ratio at 120 min, 500 μM [2, 4]: 1.05 | Papp A→B at 120 min, 500 μM [2, 5]: 0.546 ± 0.04 ×10⁻⁶ cm/s | Papp B→A at 120 min, 500 μM [2, 5]: 0.573 ± 0.037 ×10⁻⁶ cm/s

CC(C)=CCC[C@](C)(O[C@@H]1O[C@H](CO)[C@@H](O)[C@H](O)[C@H]1O)[C@H]1CC[C@]2(C)[C@@H]1[C@H](O)C[C@@H]1[C@@]3(C)CC[C@H](O)C(C)(C)[C@@H]3[C@@H](O[C@@H]3O[C@H](CO)[C@@H](O)[C@H](O)[C@H]3O)C[C@]12C [GRg1, ginsenoside Rg1]
Remaining, Short-term stability ([1]; kidney homogenate, QC 0.4 μg·mL^−1, 4°C for 4–24 h): 91.5 ± 6.5% | Remaining, Long-term stability ([1]; kidney homogenate, QC 0.4 μg·mL^−1, 8 weeks at −70°C): 90.8 ± 6.1% | Remaining, Freeze-thaw stability ([1]; kidney homogenate, QC 0.4 μg·mL^−1, three freeze-thaw cycles): 90.5 ± 7.8% | Remaining, Short-term stability ([1]; kidney homogenate, QC 3.0 μg·mL^−1, 4°C for 4–24 h): 95.9 ± 4.5% | Remaining, Long-term stability ([1]; kidney homogenate, QC 3.0 μg·mL^−1, 8 weeks at −70°C): 91.6 ± 11.2% | Remaining, Freeze-thaw stability ([1]; kidney homogenate, QC 3.0 μg·mL^−1, three freeze-thaw cycles): 94.7 ± 3.7% | Remaining, Short-term stability ([1]; kidney homogenate, QC 40.0 μg·mL^−1, 4°C for 4–24 h): 102.1 ± 5.7% | Remaining, Long-term stability ([1]; kidney homogenate, QC 40.0 μg·mL^−1, 8 weeks at −70°C): 95.7 ± 4.6% | Remaining, Freeze-thaw stability ([1]; kidney homogenate, QC 40.0 μg·mL^−1, three freeze-thaw cycles): 91.2 ± 10.6% | efflux ratio at 120 min, 500 μM [2, 3]: 1 to 1.1 | efflux ratio at 120 min, 500 μM [2, 4]: 1.05 | Papp A→B at 120 min, 500 μM [2, 5]: 0.348 ± 0.042 ×10⁻⁶ cm/s | Papp B→A at 120 min, 500 μM [2, 5]: 0.364 ± 0.029 ×10⁻⁶ cm/s
